# Measurements taken from US4771062A, “Diaryl sulphide derivatives” (Bayer Aktiengesellschaft, priority 1986, dated 1988).
# Structures can show the parent of a compound that is named as a salt.
# Molecular target: T1, lipoxygenase activity of PMN (Rattus norvegicus, UniProt P12527)
# T1 construct: lipoxygenase activity of PMN in rats; endogenous in cells; host or cells: rat PMN (polymorphonuclear leucocytes)
# T1 sequence (P12527 1-673): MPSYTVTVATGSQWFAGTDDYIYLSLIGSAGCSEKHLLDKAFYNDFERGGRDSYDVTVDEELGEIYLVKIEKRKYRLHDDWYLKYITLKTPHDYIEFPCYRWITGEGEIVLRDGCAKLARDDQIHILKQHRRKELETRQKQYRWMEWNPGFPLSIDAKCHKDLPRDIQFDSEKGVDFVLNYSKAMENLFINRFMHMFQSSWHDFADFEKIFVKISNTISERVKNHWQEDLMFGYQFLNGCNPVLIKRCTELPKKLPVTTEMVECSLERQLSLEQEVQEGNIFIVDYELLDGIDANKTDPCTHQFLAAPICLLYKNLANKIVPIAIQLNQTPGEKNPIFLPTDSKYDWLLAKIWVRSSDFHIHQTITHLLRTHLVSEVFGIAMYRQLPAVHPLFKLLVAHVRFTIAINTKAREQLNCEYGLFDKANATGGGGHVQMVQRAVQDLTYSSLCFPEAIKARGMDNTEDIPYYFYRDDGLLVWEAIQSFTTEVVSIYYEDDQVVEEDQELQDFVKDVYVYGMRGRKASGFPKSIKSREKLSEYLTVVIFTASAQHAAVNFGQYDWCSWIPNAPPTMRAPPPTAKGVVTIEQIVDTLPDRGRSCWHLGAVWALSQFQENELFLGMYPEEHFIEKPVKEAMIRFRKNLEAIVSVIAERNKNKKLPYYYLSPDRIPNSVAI
# Experiment: LTB4 formed after stimulation with Ca-ionophor, determined by reversed phase HPLC, as a measure of the lipoxygenase activity of PMN
# Format: cell-based, rats
# Settings: LTB4 formation, Ca-ionophor stimulated rat PMN
# Method: The pharmacological action of the substances according to the invention was determined by the following method:
# The leucotriene B4 (LTB4) formed after stimulation with Ca-ionophor is determined by means of reversed phase HPLC in accordance with the method of Borgeat et al. Proc. Natl. Acad. Sci. USA, 76, 215 (1982) as a measure of the lipoxygenase activity of PMN in rats.
row,Compound,IC50 [nM]
1,"c1cc(Sc2ccc(NC3=NCCS3)cc2)ccc1NC1=NCCS1 [Example 2, Bis[4-(Δ^2-thiazolin-2-yl)aminophenyl]sulphide]",349
2,"c1cc(Sc2ccc(NC3=NCCS3)cc2)ccc1NC1=NCCS1 [Example 3, Bis[4-(Δ^2-thiazolin-2-yl)aminophenyl]sulphide HCl salt]",776
3,"c1ccc(C2CSC(Nc3ccc(Sc4ccc(NC5=NC(c6ccccc6)CS5)cc4)cc3)=N2)cc1 (stereo not drawn) [Example 4, Bis[4-(4-phenyl-Δ^2-thiazolin-2-yl)aminophenyl]sulphide]",501
4,"COC(=O)Cc1cc(NC2=NCCS2)ccc1Sc1ccccc1 [Example 10, Methyl[2-phenylthio-5-(Δ^2-thiazolin-2-yl)amino]phenylacetate]",209
5,c1ccc(Sc2ccc(NC3=NCCS3)cc2)cc1 [Example 12],97.8

# Next, values leading:
row,IC50 [nM],Compound
1,265,"CN1CCSC1=Nc1ccc(Sc2ccc(N=C3SCCN3C)cc2)cc1 [Example 17, Bis[4-(3-methyl-thiazolidin-2-imino)phenyl]sulphide]"
2,123,"CC1CN=C(Nc2ccc(Sc3ccc(NC4=NCC(C)S4)cc3)cc2)S1 (stereo not drawn) [Example 22, Bis[4-(5-methyl-Δ^2-thiazolin-2-yl)aminophenyl]sulphide]"
3,145,"Cc1ccc(S(=O)(=O)Nc2ccc(Sc3ccc(NC4=NCCS4)cc3)cc2)cc1 [Example 29, 4-(Δ^2 -Thiazolin-2-yl)amino-4'-tosylaminodiphenyl sulphide]"

# Test system: not listed separately
# Experiment: appearance of the isolated salt in air (hygroscopicity)
# Format: physicochemical
# Settings: after lyophilization
# Method: 3 g of bis[4-(Δ^2 -thiazolin-2-yl)aminophenyl]sulphide are taken up in 0.6 ml of 1N HCl and 10 ml of H2 O and the mixture is lyophilized.
row,Compound,hygroscopicity
1,"c1cc(Sc2ccc(NC3=NCCS3)cc2)ccc1NC1=NCCS1 [Example 3, Bis[4-(Δ^2-thiazolin-2-yl)aminophenyl]sulphide HCl salt]",Hygroscopic crystals which deliquesce in air
